# In patent US8410309B2, “Phenoxy carboxylic acid compounds and compositions for delivering active agents” (Emisphere Technologies, Inc., priority 1999, dated 2013):
# Several values for one entry are separate records, joined by “and”; a condition that tells them apart may be missing. Identical values can stand only once.
# How the values were obtained:
# [1] = Salmon calcitonin (sCT) oral delivery, serum sCT by EIA; settings: rats, delivery agent compound dose 150 mg/kg, sCT dose 30 μg/kg
# [2] = Insulin oral delivery, serum human insulin by ELISA; settings: rats
# Protocol: Oral dosing (PO) compositions of delivery agent compound and human zinc insulin (minimum 26 IU/mg available from Calbiochem—Novabiochem Corp, La Jolla, Calif.) were prepared in deionized water. […] The pH was adjusted to about 7 to 8.5 with NaOH or HCl. […] The final delivery agent compound dose, insulin dose and dose volume amounts are listed below in Table 8.
# (§1) The typical dosing and sampling protocols were as follows.
# Serum insulin levels were determined with an Insulin ELISA Test Kit (Kit # DSL-10-1600 from Diagnostic Systems Laboratories, Inc., Webster, Tex.), modifying the standard protocol in order to optimize the sensitivity and linear range of the standard curve for the volumes and concentrations of the samples used in the present protocol. […] The five values for each time point were averaged and the results plotted as serum insulin concentration versus time.
# [3] = Insulin pulmonary delivery, serum insulin by ELISA, ratio to insulin-alone control; format: in vivo, Sprague-Dawley rats; settings: rats
# Protocol: Dosing compositions of delivery agent compound and human insulin in water were prepared. Typically, to 1.5 mg of delivery agent compound was added deionized water to bring the volume to 1.0 ml, and the solution was vortexed. […] The pH was adjusted to between about 7.0 to 8.5 with NaOH or HCl. […] The final delivery agent compound dose, insulin dose and volume dose amounts are listed below in Table 9.
# The typical dosing and sampling protocols were as follows. […] A control group of five animals was dosed insulin alone. A tracheal instillator for rodents, equipped with light (available from Penn Century, Inc., Pittsburgh, Pa.) was filled with dosing solution and inserted down the throat until the needle went into the trachea (confirmed visually). The dosing solution was administered by pressing the plunger.
# Blood samples from each animal were collected serially from the tail artery, typically at 5, 15, 30, 60 and 120 minutes after dosing. […] The ratio of the area under the curve (AUC) for the test group versus that of the control group is reported below. The ratio of the maximum serum insulin concentration (Cmax) for the test group versus that of the control group is also reported below.
# [4] = Daptomycin oral delivery, plasma daptomycin by HPLC; format: in vivo, Sprague-Dawley rats; settings: rats, delivery agent compound dose 200 mg/kg, daptomycin dose 50 mg/kg, volume dose 1 mL/kg
# Protocol: Dosing solutions containing a delivery agent compound and daptomycin (Cubist Pharmaceuticals, Cambridge, Mass.) were prepared in 0.9% normal saline. […] This mixture was vortexed and placed in a sonicator (about 37° C.). The pH was adjusted to about 7.0-7.5 with aqueous HCl or NaOH. […] The mixture was vortexed to produce a uniform solution, also using sonication if necessary. The delivery agent compound solution was mixed with daptomycin from a stock solution (200 mg daptomycin/mL in 0.9% normal saline and the pH adjusted, if necessary, to between 6.0-7.0 with NaOH or HCl). The stock solution was stored frozen (−20° C.) wrapped in foil, then thawed and warmed gradually to about 25° C. before using. The delivery agent-daptomycin mixture was vortexed at low speed to produce a uniform solution. The pH was adjusted to about 7.0-7.5 with aqueous NaOH. The solution was then diluted with 0.9% normal saline to the desired volume (usually 2.0 ml) and concentration and stored wrapped in foil before use.
# as §1
# Heparinized rat blood samples were collected via the ventral tail artery, typically at 0.25, 0.5, 0.75, 1.0, 2.0, and 4.0 hours after dosing, and stored on ice. Blood samples were then spun (centrifuged) at 11,500 rpm for 4 minutes at 4° C. to obtain the plasma (supernatant), which was stored at −70° C. The plasma daptomycin concentrations were measured by isocratic reversed phase HPLC, keeping samples at 4° C. during analysis. Blank plasma studies show baseline values of zero.
# Daptomycin blood concentrations results from the individual animals in each dosage group were averaged for each time point.
# [5] = Recombinant human growth hormone (rhGH) oral delivery, serum rhGH by immunoassay; settings: oral gavage, rats, delivery agent compound 200 mg/kg, rhGH 3 mg/kg
# Protocol: Oral gavage (PO) dosing solutions of delivery agent compound and rhGH in phosphate buffer were prepared by mixing. A solution of the delivery agent compound was made either with the sodium salt of the delivery agent compound or by converting the free acid to its sodium salt.
# The typical dosing and sampling protocols were as follows. Male Sprague-Dawley rats weighing 200-250 g were fasted for 24 hours and administered ketamine (44 mg/kg) and chlorpromazine (1.5 mg/kg) 15 minutes prior to dosing and again as needed to maintain anesthesia. A dosing group of five animals was administered one of the dosing solutions. An 11 cm Rusch 8 French catheter was adapted to a 1 ml syringe with a pipette tip. The syringe was filled with dosing solution by drawing the solution through the catheter, which was then wiped dry. The catheter was placed down the esophagus leaving 1 cm of tubing past the incisors. The dosing solution was administered by pressing the syringe plunger.
# Blood samples were collected serially from the tail artery typically at time=15, 30, 45, 60 and 90 minutes. The five samples from each time period were pooled (except for those samples for which standard deviation (SD) and standard error (SE) are reported). Serum rHGH concentrations were quantified by an rHGH immunoassay test kit (Kit # K1F4015 from Genzyme Corporation Inc., Cambridge, Mass.).
# [6] = Interferon oral delivery, serum IFN by immunoassay; format: in vivo, Sprague-Dawley rats; settings: rats, delivery agent compound 200 mg/kg, IFN 1 mg/kg, 1 ml/kg
# Protocol: Dosing solutions of delivery agent compound and human interferon (IFN) were prepared in deionized water. […] This mixture was vortexed and placed in a sonicator (about 37° C.). The pH was adjusted to about 7.0 to 8.5 with aqueous NaOH. The mixture was vortexed to produce a uniform suspension or solution, also using sonication and heat if necessary.
# as §1
# Serum IFN concentrations were quantified using Cytoscreen Immunoassay Kit for human IFN-alpha (catalog # KHC4012 from Biosource International, Camarillo, Calif.). Previous studies indicated baseline values of about zero.
# [7] = pulmonary, volume 0.4 ml/kg, delivery agent compound 0.03 mg/kg, insulin 0.3 mg/kg (so in the source)
compound,measurement,setting,value
O=C(O)CCCCCOc1cccc(O)c1 [Compound 45],Mean Peak Serum sCT (pg/ml ± SD) (SE),"[1]; dose volume 1 (ml), 150 mg/kg",125 ± 187 pg/mL and 172 ± 158 pg/mL
same,Mean Peak Serum [INS] ± SD,"[2]; delivery agent compound 200 mg/kg, insulin 0.5 mg/kg, 1 ml/kg",70.32 ± 149.1 μU/ml
same,Mean Ratio of AUC for insulin + compound versus AUC for insulin alone,[3]; [7],1.01
O=C(O)CCCCCCCCCOc1ccc(O)cc1 [Compound 48],Mean Peak Serum sCT (pg/ml ± SD) (SE),[1]; dose volume 3 (ml),95 ± 156 pg/mL
same,Mean Peak Serum sCT (pg/ml ± SD) (SE),[1]; dose volume 4 (ml),35 ± 49 pg/mL
same,Cmax (serum insulin),[3]; [7],135.56 ± 80.96 μU/ml
same,Mean Ratio of AUC for insulin + compound versus AUC for insulin alone,[3]; [7],1.30
O=C(O)CCCCCOc1ccc(O)cc1 [Compound 49],Mean Peak Serum [INS] ± SD,"[2]; delivery agent compound 100 mg/kg, insulin 3 mg/kg, 0.5 ml/kg",335.7 ± 227.05 μU/ml
same,Mean Ratio of AUC for insulin + compound versus AUC for insulin alone,[3]; [7],0.54
"CC(=O)c1cc(O)ccc1OCCCCCCCC(=O)O [Compound 57, (4-hydroxy-2-acetylphenyl)-8-oxyoctanoic acid]",Mean plasma Cmax [daptomycin] ± SD,[4],8590 ± 4210 ng/mL
same,Mean Peak Serum [INS] ± SD,"[2]; delivery agent compound 200 mg/kg, insulin 3 mg/kg, 1 ml/kg",3322 ± 2721 μU/ml
CCC(=O)c1ccc(OCCCCCCCC(=O)O)cc1 [Compound 63],Mean Peak Serum [INS] ± SD,"[2]; delivery agent compound 100 mg/kg, insulin 3 mg/kg, 1 ml/kg",7.843 ± 8.527 μU/ml
same,Cmax (serum insulin),"[3]; Table 9 pulmonary delivery, volume 1 ml/kg, delivery agent compound 3 mg/kg, insulin 100 mg/kg (so in the source)",7.843 μU/ml
O=C(O)c1ccc(COc2ccc(O)cc2)cc1 [Compound 67],Mean Peak Serum [rhGH],[5]; volume dose 1 ml,15 ng/mL and 14.7 ng/mL
same,Mean Peak Serum sCT (pg/ml ± SD) (SE),"[1]; dose volume 1 (ml), 150 mg/kg",142 ± 142 pg/mL and 256 ± 158 pg/mL
same,Mean Peak Serum sCT (pg/ml ± SD) (SE),[1]; dose volume 2 (ml),681 ± 419 pg/mL
same,Mean Peak Serum [IFN] ± SD,[6],3.4451 ± 4.5 ng/mL
same,Cmax (serum insulin),"[3]; pulmonary, volume 0.4 ml/kg, delivery agent compound 0.03 mg/kg, insulin 0.06 mg/kg (so in the source)",82.23 ± 47.16 μU/ml and 70.85 ± 36.24 μU/ml
same,Cmax (serum insulin),"[3]; pulmonary, volume 0.4 ml/kg, delivery agent compound 0.03 mg/kg, insulin 0.15 mg/kg (so in the source)",84.40 ± 15.06 μU/ml and 91.20 ± 37.30 μU/ml
same,Cmax (serum insulin),[3]; [7],66.04 ± 47.42 μU/ml and 92.14 ± 36.17 μU/ml and 115.04 ± 68.23 μU/ml
O=C(O)CCCCCCCOc1ccc(F)cc1F [Compound 71],Mean Peak Serum [rhGH],[5]; volume dose 3 ml,5.94 ng/mL
same,Mean Peak Serum sCT (pg/ml ± SD) (SE),[1]; dose volume 2 (ml),302 ± 246 pg/mL
same,Cmax (serum insulin),[3]; [7],57.82 ± 35.28 μU/ml
O=C(O)c1ccc(COc2ccccc2Cl)cc1 [Compound 78],Mean Peak Serum [rhGH],[5]; volume dose 1 ml,0 ng/mL
same,Cmax (serum insulin),[3]; [7],80.56 ± 30.51 μU/ml
